What all share (experiment): HLA class I binding assay (cell-free competition, fluorescence polarization)
(Polarisation of emitted light reports the rotation of a fluorescent probe.)

The target in experiment [1] is HLA B*0702 (Homo sapiens, UniProt P01889).
Experiment [2] addresses HLA A*0201 (Homo sapiens, UniProt P04439, D140Y/D185E/D98H/E176V/E277Q/G131W/G231S/I119V/I121R/I166T/I218V/L300P/L318F/N151K/N90K/P208A/P217A/Q86G/Q94H/R138H/R169H/T345S).
Experiment [3] addresses HLA B*4402 (Homo sapiens, UniProt P01889, A223V/A65T/A93T/A95T/D201E/D98Y/E176V/E187L/E204Q/E69K/G107R/H137Y/K202T/L105A/L119I/N104T/N87E/Q56L/Q94N/R106L/R155S/R180D/S101N/S121R/S35A/S48T/T118I/V36M/W191S/Y140D/Y91S).
Experiment [4] concerns the target HLA A*2402 (Homo sapiens, UniProt P04439, D101N/D140Y/D185E/E176V/E190D/F33S/G103R/G107R/I119L/I121M/I306V/K335N/L105A/L180Q/L300P/N151K/N90K/Q86E/Q94H/R106L/R138H/R89G/T104I/T345S/V100E/W191G/Y123F).
For experiment [5], the target named is HLA A*0301 (Homo sapiens, UniProt P04439).

Structures are written as SMILES. Where a SMILES comes first, the peptide text is derived from it.

Usually IC50 stands for the point on the concentration scale where inhibition reaches its midpoint. Regarding `CC[C@H](C)[C@H](NC(=O)[C@H](CC(N)=O)NC(=O)[C@H](CCCCN)NC(=O)[C@H](CCCCN)NC(=O)[C@H](CCCCN)NC(=O)[C@H](CC(C)C)NC(=O)[C@@H](N)Cc1ccccc1)C(=O)N[C@H](C(=O)N[C@@H](CC(C)C)C(=O)O)[C@@H](C)O` (H-FLKKKNITL-OH), the IC50 came out at 25.4 µM in experiment [1] and 5.34 µM in experiment [2].
In experiment [1], `CC(C)C[C@H](NC(=O)[C@H](CO)NC(=O)[C@@H]1CCCN1C(=O)[C@H](CCCCN)NC(=O)[C@H](CC(N)=O)NC(=O)[C@H](CC(C)C)NC(=O)[C@H](CC(C)C)NC(=O)[C@H](CCCCN)NC(=O)[C@@H]1CCCN1C(=O)[C@@H](N)Cc1ccccc1)C(=O)O` (H-FPKLLNKPSL-OH) displayed an IC50 of 73.1 µM.
As for `CC(C)C[C@H](NC(=O)[C@H](Cc1ccccc1)NC(=O)[C@@H]1CCCN1C(=O)[C@@H](N)Cc1c[nH]cn1)C(=O)N[C@@H](CCCCN)C(=O)N[C@@H](CO)C(=O)NCC(=O)N[C@@H](Cc1ccccc1)C(=O)N[C@H](C(=O)N[C@@H](Cc1ccccc1)C(=O)O)[C@@H](C)O` (H-HPFLKSGFTF-OH), the IC50 in experiment [1] is 0.226 µM; in experiment [3], > 1000 µM; in experiment [4], 10.5 µM.
The molecule `N=C(N)NCCC[C@H](NC(=O)[C@H](Cc1ccc(O)cc1)NC(=O)[C@H](CCCCN)NC(=O)[C@@H]1CCCN1C(=O)[C@@H](N)Cc1c[nH]cn1)C(=O)N[C@@H](CC(N)=O)C(=O)N[C@@H](Cc1ccccc1)C(=O)N[C@@H](CCCCN)C(=O)N[C@@H](Cc1ccccc1)C(=O)O` (H-HPKYRNFKF-OH) yielded an IC50 in experiment [1] of 0.336 µM.
With `CC[C@H](C)[C@H](NC(=O)[C@H](CC(N)=O)NC(=O)[C@@H](NC(=O)[C@@H]1CCCN1C(=O)[C@H](CCSC)NC(=O)[C@@H]1CCCN1C(=O)[C@@H](N)Cc1c[nH]cn1)[C@@H](C)CC)C(=O)N[C@@H](CCCCN)C(=O)N[C@@H](CC(C)C)C(=O)O` (H-HPMPINIKL-OH), the IC50 in experiment [1] turned out to be 0.168 µM.
With `CC[C@H](C)[C@H](N)C(=O)N1CCC[C@H]1C(=O)N1CCC[C@H]1C(=O)N[C@@H](CCC(N)=O)C(=O)N[C@H](C(=O)N[C@@H](Cc1ccccc1)C(=O)N[C@@H](CC(=O)O)C(=O)N[C@@H](Cc1ccc(O)cc1)C(=O)N1CCC[C@H]1C(=O)N[C@H](C(=O)O)[C@@H](C)CC)C(C)C` (H-IPPQVFDYPI-OH), the IC50 in experiment [1] was found to be 245 µM.
For `CC[C@H](C)[C@H](NC(=O)[C@H](CO)NC(=O)[C@H](CCCCN)NC(=O)[C@H](CO)NC(=O)[C@H](CC(N)=O)NC(=O)[C@@H](NC(=O)[C@H](CO)NC(=O)[C@H](Cc1ccc(O)cc1)NC(=O)[C@H](CC(C)C)NC(=O)[C@@H](N)CCCCN)[C@@H](C)CC)C(=O)O` (H-KLYSINSKSI-OH), the IC50 in experiment [1] turned out to be 225 µM; in experiment [2], 57.7 µM.
Regarding `N=C(N)NCCC[C@H](NC(=O)[C@H](Cc1c[nH]c2ccccc12)NC(=O)[C@H](Cc1ccccc1)NC(=O)[C@H](CC(N)=O)NC(=O)[C@@H]1CCCN1C(=O)[C@@H](N)CCCCN)C(=O)N[C@@H](Cc1ccccc1)C(=O)N[C@@H](CCC(N)=O)C(=O)N[C@@H](CC(=O)O)C(=O)N[C@@H](Cc1ccc(O)cc1)C(=O)O` (H-KPNFWRFQDY-OH; N-terminus assumed), in experiment [1], the half-inhibitory concentration (IC50) was > 1000 µM.
Still for that read-out and setting: for `CC(C)C[C@H](NC(=O)[C@H](CC(=O)O)NC(=O)[C@H](CCCNC(=N)N)NC(=O)[C@H](CCCNC(=N)N)NC(=O)[C@H](CC(=O)O)NC(=O)[C@H](CO)NC(=O)[C@H](CC(N)=O)NC(=O)[C@H](CC(C)C)NC(=O)[C@@H](N)CC(C)C)C(=O)O` (H-LLNSDRRDL-OH) the value was 0.2 µM; for `CC[C@H](C)[C@H](NC(=O)[C@@H]1CCCN1C(=O)[C@@H](N)CC(C)C)C(=O)N[C@@H](CCC(=O)O)C(=O)N1CCC[C@H]1C(=O)N[C@@H](CCCCN)C(=O)N[C@@H](CCCCN)C(=O)N[C@@H](CC(C)C)C(=O)N[C@@H](C)C(=O)O` (H-LPIEPKKLA-OH), 561 µM.
Same read-out and setting: for `CC(C)C[C@H](NC(=O)[C@H](CCC(N)=O)NC(=O)[C@@H](NC(=O)[C@@H]1CCCN1C(=O)[C@@H](N)CC(N)=O)C(C)C)C(=O)N[C@@H](CCCCN)C(=O)N[C@@H](CO)C(=O)N[C@@H](CCCCN)C(=O)N[C@@H](Cc1ccccc1)C(=O)O` (H-NPVQLKSKF-OH) the value was 59.6 µM.
Still for that read-out and setting: the value for `CC[C@H](C)[C@H](NC(=O)[C@H](CC(N)=O)NC(=O)[C@@H](N)CCCNC(=N)N)C(=O)N[C@H](C(=O)N[C@@H](CO)C(=O)N[C@@H](CCCCN)C(=O)N[C@@H](Cc1c[nH]cn1)C(=O)N[C@H](C(=O)N[C@@H](CO)C(=O)N[C@H](C(=O)O)C(C)C)[C@@H](C)O)[C@@H](C)CC` (H-RNIISKHTSV-OH) was 505 µM.
Consider `CC[C@H](C)[C@H](NC(=O)[C@@H](N)CO)C(=O)N[C@@H](C)C(=O)N[C@@H](CO)C(=O)N[C@@H](CCCCN)C(=O)N[C@@H](CC(N)=O)C(=O)N[C@@H](CC(C)C)C(=O)N[C@@H](CCSC)C(=O)N[C@@H](Cc1c[nH]c2ccccc12)C(=O)N[C@H](C(=O)O)C(C)C` (H-SIASKNLMWV-OH), for which the IC50 is > 1000 µM in experiment [1], > 1000 µM in experiment [5] and 284 µM in experiment [2].
For `CSCC[C@H](NC(=O)[C@@H](NC(=O)[C@H](CC(=O)O)NC(=O)[C@H](Cc1c[nH]cn1)NC(=O)[C@@H]1CCCN1C(=O)[C@@H](N)CO)[C@@H](C)O)C(=O)N[C@@H](CCC(N)=O)C(=O)N[C@@H](CCCCN)C(=O)N[C@@H](CC(=O)O)C(=O)N[C@@H](CC(=O)O)C(=O)O` (H-SPHDTMQKDD-OH; N-terminus assumed), the IC50 in experiment [1] is > 1000 µM.
On to `CSCC[C@H](NC(=O)[C@H](CCC(=O)O)NC(=O)[C@@H](N)[C@@H](C)O)C(=O)N[C@@H](Cc1ccccc1)C(=O)N[C@@H](CCCCN)C(=O)N[C@@H](CC(C)C)C(=O)N[C@@H](CCCNC(=N)N)C(=O)N[C@@H](CC(C)C)C(=O)N[C@@H](CC(N)=O)C(=O)N[C@@H](CC(C)C)C(=O)O` (H-TEMFKLRLNL-OH), for which the values for the IC50 in experiment [1], in experiment [3] and in experiment [4] were > 1000 µM, 54.8 µM and 58.2 µM, respectively.
`CC[C@H](C)[C@H](NC(=O)[C@@H](N)[C@@H](C)O)C(=O)N[C@@H](Cc1ccc(O)cc1)C(=O)NCC(=O)N[C@@H](CCCCN)C(=O)NCC(=O)NCC(=O)N[C@@H](Cc1ccccc1)C(=O)N[C@@H](CCC(N)=O)C(=O)N[C@@H](Cc1ccccc1)C(=O)O` (H-TIYGKGGFQF-OH) came in with an IC50 in experiment [1] of 109 µM.
The same measure, in the same setting: the value for `CC[C@H](C)[C@H](NC(=O)[C@@H]1CCCN1C(=O)[C@@H](N)Cc1ccc(O)cc1)C(=O)N[C@@H](CCC(=O)O)C(=O)N[C@@H](CCCCN)C(=O)N[C@@H](CC(C)C)C(=O)NCC(=O)N[C@@H](Cc1c[nH]cn1)C(=O)N[C@H](C(=O)O)C(C)C` (H-YPIEKLGHV-OH) was 0.257 µM.
The molecule `CC(C)C[C@H](NC(=O)[C@H](C)NC(=O)[C@H](CC(=O)O)NC(=O)[C@H](Cc1ccccc1)NC(=O)[C@@H](NC(=O)[C@H](CC(N)=O)NC(=O)[C@@H]1CCCN1C(=O)[C@@H]1CCCN1C(=O)[C@@H](N)Cc1ccccc1)[C@@H](C)O)C(=O)O` [FPPNTFDAL] (H-FPPNTFDAL-OH) gave an IC50 in experiment [1] of 2.72 µM.
Turning to `CC(C)C[C@H](NC(=O)[C@H](C)NC(=O)[C@H](CO)NC(=O)[C@@H](NC(=O)[C@H](CCCCN)NC(=O)[C@H](CC(=O)O)NC(=O)[C@H](CCCNC(=N)N)NC(=O)[C@H](CS)NC(=O)[C@@H](N)Cc1c[nH]cn1)[C@@H](C)O)C(=O)O` [HCRDKTSAL] (H-HCRDKTSAL-OH), in experiment [1], the IC50 was 28.6 µM.

For the origin of these results see publication PMC8138313, “Identification, Selection and Immune Assessment of Liver Stage CD8 T Cell Epitopes From Plasmodium falciparum” (Frontiers in Immunology, 2021).
